Data from patent publication US11542235B2, “Herbicidal 3-azaspiro[5.5] undecane-8, 10-dione compounds” (SYNGENTA PARTICIPATIONS AG, priority 2018, dated 2023).

Assays:
Format in all cases: in vivo
Avena fatua (AVEFA) [1] = assay: Post-emergence weed phytotoxicity, Avena fatua, with or without safener CQC
Experimental: (§1) Seeds of a variety of test species are sown in standard soil in pots (Lolium perenne (LOLPE), Setaria faberi (SETFA), Alopecurus myosuroides (ALOMY), Echinochloa crus-galli (ECHCG), Avena fatua (AVEFA)). After cultivation for one day (pre-emergence) or after 8 days cultivation (post-emergence) under controlled conditions in a glasshouse (at 24/16° C., day/night; 14 hours light; 65% humidity), the plants are sprayed with an aqueous spray solution derived from the formulation of the technical active ingredient in acetone/water (50:50) solution containing 0.5% Tween 20 (polyoxyethelyene sorbitan monolaurate, CAS RN 9005-64-5). Compounds are applied at […]. The test plants are then grown in a glasshouse under controlled conditions in a glasshouse (at 24/16° C., day/night; 14 hours light; 65% humidity) and watered twice daily. After 13 days for pre and post-emergence, the test is evaluated for the percentage damage caused to the plant. The biological activities are shown in the following table on a five point scale (5=80-100%; 4=60-79%; 3=40-59%; 2=20-39%; 1=0-19%).
(§2) Using procedures outlines above, wheat and barley crop plants are treated, along with two weed species Avena fatua (AVEFA) and Lolium multiflorum (LOLPE) post-emergence with compound A2 of the present invention or comparator compound C1 (Compound A-38 from WO2014/096289) at the application rates indicated. The compounds were also applied in conjunction with the safener compound cloquintocet-mexyl (CQC) at 50 g/ha.

Avena fatua (AVEFA) [2] = assay: Glasshouse herbicidal test, pre- and post-emergence, Avena fatua; settings: 250 g/h, evaluated after 13 days, five point scale; for percentage damage caused to the plant, AVEFA POST: post-emergence; for percentage damage caused to the plant, AVEFA PRE: pre-emergence
In short: (§3)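 Pot-grown grass weeds in standard soil were sprayed 1 day after sowing (pre-emergence) or after 8 days (post-emergence) with compound at 250 g/h in acetone/water (50:50) with 0.5% Tween 20. Glasshouse conditions were 24/16 °C day/night, 14 h light, 65% humidity. Damage was scored after 13 days on a five-point scale.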

[3] = test system: Echinochloa crus-galli (ECHCG); assay: Glasshouse herbicidal test, pre- and post-emergence, Echinochloa crus-galli; settings: 250 g/h, evaluated after 13 days, five point scale; for percentage damage caused to the plant, ECHCG POST: post-emergence; for percentage damage caused to the plant, ECHCG PRE: pre-emergence
In short: as §3

Setaria faberi (SETFA) = assay: Glasshouse herbicidal test, pre- and post-emergence, Setaria faberi; settings: 250 g/h, evaluated after 13 days, five point scale; for percentage damage caused to the plant, SETFA PRE: pre-emergence; for percentage damage caused to the plant, SETFA POST: post-emergence
In short: as §3

Lolium multiflorum = assay: Post-emergence weed phytotoxicity, Lolium multiflorum, with or without safener CQC
Experimental: as §1, §2

Lolium perenne (LOLPE) = assay: Glasshouse herbicidal test, pre- and post-emergence, Lolium perenne; settings: 250 g/h, evaluated after 13 days, five point scale; for percentage damage caused to the plant, LOLPE POST: post-emergence; for percentage damage caused to the plant, LOLPE PRE: pre-emergence
In short: as §3

barley = assay: Post-emergence crop phytotoxicity, barley, with or without safener CQC
Experimental: as §1, §2

[4] = test system: Alopecurus myosuroides (ALOMY); assay: Glasshouse herbicidal test, pre- and post-emergence, Alopecurus myosuroides; settings: 250 g/h, evaluated after 13 days, five point scale; for percentage damage caused to the plant, ALOMY POST: post-emergence; for percentage damage caused to the plant, ALOMY PRE: pre-emergence
In short: as §3

wheat = assay: Post-emergence crop phytotoxicity, wheat, with or without safener CQC
Experimental: as §1, §2

[5] = 60 g/ha + safener cloquintocet-mexyl (CQC) at 50 g/ha

Row | SMILES | percentage damage caused to the plant, AVEFA POST (Avena fatua (AVEFA) [2]) | percentage damage caused to the plant, AVEFA PRE (Avena fatua (AVEFA) [2]) | percentage damage caused to the plant, ECHCG POST [3] | percentage damage caused to the plant, ECHCG PRE [3] | percentage damage caused to the plant, SETFA PRE (Setaria faberi (SETFA)) | percentage damage caused to the plant, LOLPE POST (Lolium perenne (LOLPE)) | percentage damage caused to the plant, LOLPE PRE (Lolium perenne (LOLPE)) | percentage damage caused to the plant, ALOMY POST [4] | percentage damage caused to the plant, ALOMY PRE [4] | percentage damage caused to the plant, SETFA POST (Setaria faberi (SETFA)) | other results
1 | CC#Cc1cc(C)c(C2C(=O)CC3(CCN(C(C)=O)CC3)CC2=O)c(C)c1 [Compound A2, 3-acetyl-9-(2,6-dimethyl-4-prop-1-ynyl-phenyl)-3-azaspiro[5.5]undecane-8,10-dione] | 5 (5=80-100%) | 5 (5=80-100%) | 5 (5=80-100%) | 5 (5=80-100%) | 5 (5=80-100%) | 5 (5=80-100%) | 5 (5=80-100%) | 5 (5=80-100%) | 5 (5=80-100%) |  | % phytotoxicity, AVENA (Avena fatua (AVEFA) [1]; 30 g/ha): 75%; % phytotoxicity, AVENA (Avena fatua (AVEFA) [1]; 60 g/ha): 92%; % phytotoxicity, AVENA (Avena fatua (AVEFA) [1]; [5]): 92%; % phytotoxicity, LOLMU (Lolium multiflorum; 30 g/ha): 98%; % phytotoxicity, LOLMU (Lolium multiflorum; 60 g/ha): 100%; % phytotoxicity, LOLMU (Lolium multiflorum; [5]): 100%; % phytotoxicity, Barley (barley; 30 g/ha): 0%; % phytotoxicity, Barley (barley; 60 g/ha): 15%; % phytotoxicity, Barley (barley; [5]): 0%; damage to the barley crop compared to prior art compound C1 (barley; rates of Table B2): significantly less damaging; % phytotoxicity, Wheat (wheat; 30 g/ha): 5%; % phytotoxicity, Wheat (wheat; 60 g/ha): 15%; % phytotoxicity, Wheat (wheat; [5]): 5%; damage to the wheat crop compared to prior art compound C1 (wheat; rates of Table B2): significantly less damaging
2 | CC#Cc1cc(C)c(C2C(=O)CC3(CCOCC3)CC2=O)c(C)c1 [Compound C1, reference compound] |  |  |  |  |  |  |  |  |  |  | % phytotoxicity, AVENA (Avena fatua (AVEFA) [1]; 30 g/ha): 65%; % phytotoxicity, AVENA (Avena fatua (AVEFA) [1]; 60 g/ha): 90%; % phytotoxicity, AVENA (Avena fatua (AVEFA) [1]; [5]): 80%; % phytotoxicity, LOLMU (Lolium multiflorum; 30 g/ha): 98%; % phytotoxicity, LOLMU (Lolium multiflorum; 60 g/ha): 100%; % phytotoxicity, LOLMU (Lolium multiflorum; [5]): 100%; % phytotoxicity, Barley (barley; 30 g/ha): 5%; % phytotoxicity, Barley (barley; 60 g/ha): 90%; % phytotoxicity, Barley (barley; [5]): 18%; % phytotoxicity, Wheat (wheat; 30 g/ha): 25%; % phytotoxicity, Wheat (wheat; 60 g/ha): 75%; % phytotoxicity, Wheat (wheat; [5]): 50%
3 | CC#Cc1cc(C)c(C2=C(OC(=O)C(C)C)CC3(CCN(C(C)=O)CC3)CC2=O)c(C)c1 [Compound P12] | 5 (5=80-100%) | 5 (5=80-100%) | 5 (5=80-100%) | 5 (5=80-100%) | 5 (5=80-100%) | 5 (5=80-100%) | 5 (5=80-100%) | 5 (5=80-100%) | 5 (5=80-100%) | 5 (5=80-100%) | 
4 | CC#Cc1cc(C)c(C2=C(OS(=O)(=O)CC)CC3(CCN(C(C)=O)CC3)CC2=O)c(C)c1 [Compound P13] | 5 (5=80-100%) | 5 (5=80-100%) | 5 (5=80-100%) | 4 (4=60-79%) | 5 (5=80-100%) | 5 (5=80-100%) | 5 (5=80-100%) | 5 (5=80-100%) | 4 (4=60-79%) | 5 (5=80-100%) | 
5 | CC#Cc1cc(C)c(C2=C(OC(=O)SC(C)C)CC3(CCN(C(C)=O)CC3)CC2=O)c(C)c1 [Compound P14] | 5 (5=80-100%) | 5 (5=80-100%) | 5 (5=80-100%) | 5 (5=80-100%) | 5 (5=80-100%) | 5 (5=80-100%) | 5 (5=80-100%) | 5 (5=80-100%) | 5 (5=80-100%) | 5 (5=80-100%) | 
6 | CC#Cc1cc(C)c(C2=C(OC(=O)C3CC3)CC3(CCN(C(C)=O)CC3)CC2=O)c(C)c1 [Compound P15] | 5 (5=80-100%) | 5 (5=80-100%) | 5 (5=80-100%) | 5 (5=80-100%) | 5 (5=80-100%) | 5 (5=80-100%) | 5 (5=80-100%) | 5 (5=80-100%) | 5 (5=80-100%) | 5 (5=80-100%) | 
7 | CC#Cc1cc(C)c(C2=C(OC(=O)OC)CC3(CCN(C(=O)C(F)F)CC3)CC2=O)c(C)c1 [Compound P16] | 5 (5=80-100%) | 5 (5=80-100%) | 5 (5=80-100%) | 5 (5=80-100%) | 5 (5=80-100%) | 5 (5=80-100%) | 5 (5=80-100%) | 5 (5=80-100%) | 5 (5=80-100%) | 5 (5=80-100%) | 
8 | C#CCOC1=C(c2c(C)cc(C#CC)cc2C)C(=O)CC2(CCN(C(C)=O)CC2)C1 [Compound P17] | 5 (5=80-100%) | 5 (5=80-100%) |  | 5 (5=80-100%) | 5 (5=80-100%) | 5 (5=80-100%) | 5 (5=80-100%) | 5 (5=80-100%) | 5 (5=80-100%) | 5 (5=80-100%) | 
9 | CC#Cc1cc(C)c(C2=C(OC(=O)OC)CC3(CCN(C(C)=O)CC3)CC2=O)c(OC)c1 [Compound P18] | 5 (5=80-100%) | 5 (5=80-100%) |  | 5 (5=80-100%) | 5 (5=80-100%) | 5 (5=80-100%) | 5 (5=80-100%) | 5 (5=80-100%) | 5 (5=80-100%) | 5 (5=80-100%) | 
